Values quoted from earlier work in patent publication US4032635A, “Pharmaceutical method for the therapy of immune diseases” (Zaidan Hojin Biseibutsu Kagaku Kenkyu Kai, priority 1975, dated 1977).

How the values were obtained:
histidine decarboxylase = conditions: cited from earlier work
[1] = test system: antibody formation, anaphylaxis or contact dermatitis; conditions: in vivo; cited from earlier work
[2] = test system: autoimmune diseases, some infection allergies and dermatological contact allergies, transplantation immunological responses; conditions: in vivo; cited from earlier work
[3] = test system: humoral and cell-mediated immunities; conditions: cited from earlier work
[4] = test system: nucleic acid and/or protein synthesis; conditions: cited from earlier work
[5] = test system: experimental allergic encephalomyelitis (EAE); conditions: cited from earlier work
[6] = test system: MS and related autoimmune diseases; conditions: long-term administration; cited from earlier work

## NNC(Cc1c[nH]cn1)C(=O)O (centres unmarked) [2-hydrazino-3-(4-imidazolyl)-propionic acid]
Histidine decarboxylase
  inhibition of histidine decarboxylase: inhibitor of histidine decarboxylase
[1]
  inhibition of antibody formation, anaphylaxis or contact dermatitis: inhibits antibody formation, anaphylaxis or contact dermatitis

## O=P1(N(CCCl)CCCl)NCCCO1 (centres unmarked) [cyclophosphamide]
[2]
  effectiveness in therapy of autoimmune diseases, allergies, transplantation responses: effective in the therapy of autoimmune diseases, some infection allergies and dermatological contact allergies
[3]
  dose at which effective / cytotoxicity: effective in general only at near-lethal doses owing to their cytotoxicity
  inhibition of humoral and cell-mediated immunities: inhibit both humoral and cell-mediated immunities
[4]
  effect on nucleic acid and/or protein synthesis: disrupt nucleic acid and/or protein synthesis
[5]; after discontinuation and following a latent period
  EAE after discontinuation of the drug (known agents): the animals often develop paralytic EAE
[5]; at such high doses as would cause toxicity
  suppression of development of EAE (known agents): can suppress the development of EAE

## CCOc1c(N)c2c(c(OCC)c1OCC)C(C1c3c(cc4c(c3OC)OCO4)CCN1C)OC2=O (centres unmarked) [tritoqualine]
Histidine decarboxylase
  inhibition of histidine decarboxylase: inhibitor of histidine decarboxylase
[1]
  inhibition of antibody formation, anaphylaxis or contact dermatitis: inhibits antibody formation, anaphylaxis or contact dermatitis

## ACTH: presently applied to patients with MS and related autoimmune diseases (SYSMEHFRWGKPVGKKRRPVKVYPNGAEDESAEAFPLEF; Corticotropin; UniProt P01189 138-176, looked up)
[6]
  effects in patients with MS: effects are limited due to serious side-effects caused by long-term administration of the drug
